Results on 34 molecules are retold here after patent publication US20050197350A1, “Novel quinoline, tetrahydroquinazoline, and pyrimidine derivatives and methods of treatment related to the use thereof” (TAISHO PHARMACEUTICAL CO., LTD., priority 2003, published 2005).

For one assay, the system named is MCH receptors. As to the kind of experiment: MCH receptor activity class (method not given).
Settings: not given
As to `COc1cccc(C(=O)N[C@H]2CC[C@@H](Nc3nc(C)cc(N(C)C)n3)CC2)c1` [Example 2564, N-(cis-4-{[4-(dimethylamino)-6-methylpyrimidin-2-yl]amino}cyclohexyl)-3-methoxybenzamide], the class turned out to be 1.

The same assay, now with this note: MCH receptor activity class 1-3 (percent of control at 10^-7 M or IC50).
`Cc1onc(-c2ccccc2)c1NC(=S)N[C@H]1CC[C@@H](Nc2cc(N(C)C)c3ccccc3n2)CC1` [compound 2309]: the class is reported as 3 (Class 3 The value of percent of control at 10^−7 M was more than 60% or the value of IC50 was more than 200 nM.). The same measure, in the same setting: with `CCc1cccc(CC)c1NC(=O)NC[C@H]1CC[C@@H](Nc2cc(N(C)C)c3ccccc3n2)CC1` [compound 2372] the figure was 2 (Class 2: The value of percent of control at 10^−7 M was from 40% to 60% or the value of IC′50 was from 50 nM to 200 nM.); with `CN(C)c1nc(N[C@H]2CC[C@@H](CNC(=O)Nc3ccc(F)cc3)CC2)nc2c1CCCC2` [compound 2456], 2 (Class 2: The value of percent of control at 10^−7 M was from 40% to 60% or the value of IC′50 was from 50 nM to 200 nM.); with `CCCc1ccccc1NC(=O)NC[C@H]1CC[C@@H](Nc2nccc(N(C)C)n2)CC1` [compound 2428, N-[(cis-4-{[4-(dimethylamino)pyrimidin-2-yl]amino}cyclohexyl)methyl]-N′-(2-propylphenyl)urea], 2 (Class 2: The value of percent of control at 10^−7 M was from 40% to 60% or the value of IC′50 was from 50 nM to 200 nM.). Still for that read-out and setting: under `Cc1cccc(C)c1NC(=O)NC[C@H]1CC[C@@H](Nc2nc3c(c(N(C)C)n2)CCCC3)CC1` [compound 2452] stands 1 (Class 1: The value of percent of control at 10^−7 M was less than 40% or the value of IC50 was less than 50 nM.).

The assay is the same for the next values; noted with them: MCH receptor; class by percent of control at 10^-7 M or IC50.
With `Cc1ccc(NC(=S)N[C@H]2CC[C@@H](Nc3nc4c(c(N(C)C)n3)CCCC4)CC2)cc1Cl` [compound 2010], the class is recorded as 3 (Class 3 The value of percent of control at 10^−7 M was more than 60% or the value of IC50 was more than 200 nM.). Regarding `CN(C)c1nc(N[C@H]2CC[C@@H](NC(=O)Nc3ccc(OC(F)(F)F)cc3)CC2)nc2c1CCCC2` [compound 1912], the class was 3 (Class 3 The value of percent of control at 10^−7 M was more than 60% or the value of IC50 was more than 200 nM.). On the same count and under the same terms, under `Cc1cc(C(=O)N[C@H]2CC[C@@H](Nc3cc(N(C)C)c4ccccc4n3)CC2)ccc1Br` [compound 57, 4-bromo-N-(cis-4-{[4-(dimethylamino)quinolin-2-yl]amino}cyclohexyl)-3-methylbenzamide] stands 1 (Class 1: The value of percent of control at 10^−7 M was less than 40% or the value of IC50 was less than 50 nM.); under `CN(C)c1cc(N[C@H]2CC[C@@H](CNC(=O)c3cc(C(F)(F)F)cc(C(F)(F)F)c3)CC2)nc2ccccc12` [compound 205, N-[(cis-4-{[4-(dimethylamino)quinolin-2-yl]amino}cyclohexyl)methyl]-3,5-bis(trifluoromethyl)benzamide], 3 (Class 3 The value of percent of control at 10^−7 M was more than 60% or the value of IC50 was more than 200 nM.). For the molecule `CN(C)c1cc(N[C@H]2CC[C@@H](NC(=O)c3ccccc3OC(F)(F)F)CC2)nc2ccccc12` [compound 118], the class is given as 3 (Class 3 The value of percent of control at 10^−7 M was more than 60% or the value of IC50 was more than 200 nM.).

In the case of `CN(C)c1cc(N[C@H]2CC[C@@H](NC(=O)c3cccc(Cl)c3)CC2)nc2ccccc12` [compound 24], the class is given as 1 (Class 1: The value of percent of control at 10^−7 M was less than 40% or the value of IC50 was less than 50 nM.). On the same count and under the same terms, under `CN(C)c1cc(N[C@H]2CC[C@@H](NC(=O)c3ccc(F)cc3F)CC2)nc2ccccc12` [compound 126, N-(cis-4-{[4-(dimethylamino)quinolin-2-yl]amino}cyclohexyl)-2,4-difluorobenzamide] stands 3 (Class 3 The value of percent of control at 10^−7 M was more than 60% or the value of IC50 was more than 200 nM.); under `CCC[C@H]1CC[C@H](c2ccc(NC(=S)N[C@H]3CC[C@@H](Nc4nc5c(c(N(C)C)n4)CCCC5)CC3)cc2)CC1` [compound 1943], 3 (Class 3 The value of percent of control at 10^−7 M was more than 60% or the value of IC50 was more than 200 nM.). The same measure, in the same setting: under `CN(C)c1nc(N[C@H]2CC[C@@H](NC(=S)Nc3cccc(Br)c3)CC2)nc2c1CCCC2` [compound 1929] stands 3 (Class 3 The value of percent of control at 10^−7 M was more than 60% or the value of IC50 was more than 200 nM.).

The assay is the same for the next values; noted with them: activity class 1-3: percent of control at 10^-7 M or IC50.
Consider `CN(C)c1ccnc(N[C@H]2CC[C@@H](NC(=O)Oc3ccccc3)CC2)n1` [compound 1632], for which the class is given as 3 (Class 3 The value of percent of control at 10^−7 M was more than 60% or the value of IC50 was more than 200 nM.).

Still in this assay, the particulars now being: activity class per percent of control at 10^-7 M or IC50.
In the case of `CN(C)c1ccc(CNC[C@H]2CC[C@@H](Nc3cc(N(C)C)c4ccccc4n3)CC2)cc1` [compound 1151], the class is 3 (Class 3 The value of percent of control at 10^−7 M was more than 60% or the value of IC50 was more than 200 nM.).

The assay is the same for the next values; noted with them: class 1-3 by percent of control at 10^-7 M or IC50.
Take `Cc1cc(C(=O)N[C@H]2CC[C@@H](Nc3nc4c(c(N(C)C)n3)CCCC4)CC2)c(C(F)(F)F)o1` [compound 506]: the class is recorded as 2 (Class 2: The value of percent of control at 10^−7 M was from 40% to 60% or the value of IC′50 was from 50 nM to 200 nM.).

Consider `CN(C)c1nc(N[C@H]2CC[C@@H](NC(=O)COc3ccccc3[N+](=O)[O-])CC2)nc2c1CCCC2` [compound 549], for which the class was 3 (Class 3 The value of percent of control at 10^−7 M was more than 60% or the value of IC50 was more than 200 nM.). The same measure, in the same setting: with `CN(C)c1nc(N[C@H]2CC[C@@H](NC(=O)c3cccc(F)c3)CC2)nc2c1CCCC2` [compound 541] the figure was 1 (Class 1: The value of percent of control at 10^−7 M was less than 40% or the value of IC50 was less than 50 nM.). Same read-out and setting: with `CN(C)c1nc(N[C@H]2CC[C@@H](NC(=O)Cc3cccc4ccccc34)CC2)nc2c1CCCC2` [compound 525] the figure was 3 (Class 3 The value of percent of control at 10^−7 M was more than 60% or the value of IC50 was more than 200 nM.).

The same assay, now with this note: class by percent of control at 10^-7 M or IC50.
Turning to `COc1ccc(NC(=O)N[C@H]2CC[C@@H](Nc3nc4c(c(N(C)C)n3)CCCC4)CC2)c([N+](=O)[O-])c1` [compound 1893], the class was 3 (Class 3 The value of percent of control at 10^−7 M was more than 60% or the value of IC50 was more than 200 nM.). Consider `COc1cc(CN[C@H]2CC[C@@H](Nc3nc4c(c(N(C)C)n3)CCCC4)CC2)cc(OC)c1O` [compound 1337], for which the class was 2 (Class 2: The value of percent of control at 10^−7 M was from 40% to 60% or the value of IC′50 was from 50 nM to 200 nM.). The same measure, in the same setting: with `COc1cc2ccccc2cc1CN[C@H]1CC[C@@H](Nc2nc3c(c(N(C)C)n2)CCCC3)CC1` [compound 1488] the figure was 3 (Class 3 The value of percent of control at 10^−7 M was more than 60% or the value of IC50 was more than 200 nM.); with `Cc1cc(C)c(C(=O)NC[C@H]2CC[C@@H](Nc3nc4c(c(N(C)C)n3)CCCC4)CC2)c(C)c1` [compound 666], 2 (Class 2: The value of percent of control at 10^−7 M was from 40% to 60% or the value of IC′50 was from 50 nM to 200 nM.); with `Cc1cccc(C)c1NC(=S)N[C@H]1CC[C@@H](Nc2nccc(N(C)C)n2)CC1` [compound 2261], 3 (Class 3 The value of percent of control at 10^−7 M was more than 60% or the value of IC50 was more than 200 nM.). The same measure, in the same setting: under `CN(C)c1nc(N[C@H]2CC[C@@H](CNC(=O)Cc3ccccc3)CC2)nc2c1CCCC2` [compound 607] stands 3 (Class 3 The value of percent of control at 10^−7 M was more than 60% or the value of IC50 was more than 200 nM.); under `COc1cccc(C(=O)N[C@H]2CC[C@@H](Nc3nccc(N(C)C)n3)CC2)c1` [compound 238, N-(cis-4-{[4-(dimethylamino)pyrimidin-2-yl]amino}cyclohexyl)-3-methoxybenzamide], 2 (Class 2: The value of percent of control at 10^−7 M was from 40% to 60% or the value of IC′50 was from 50 nM to 200 nM.); under `CN(C)c1nc(N[C@H]2CC[C@@H](NC(=O)Nc3ccc(Cl)cc3Cl)CC2)nc2c1CCCC2` [compound 1819], 3 (Class 3 The value of percent of control at 10^−7 M was more than 60% or the value of IC50 was more than 200 nM.).

For the molecule `Cc1cc(C)c(CNC[C@H]2CC[C@@H](Nc3nccc(N(C)C)n3)CC2)c(C)c1` [compound 1302], the class is 3 (Class 3 The value of percent of control at 10^−7 M was more than 60% or the value of IC50 was more than 200 nM.). Regarding `CN(C)c1ccnc(N[C@H]2CC[C@@H](NC(=O)c3ccccc3)CC2)n1` [compound 311, N-(cis-4-{[4-(dimethylamino)pyrimidin-2-yl]amino}cyclohexyl)benzamide], the class is 3 (Class 3 The value of percent of control at 10^−7 M was more than 60% or the value of IC50 was more than 200 nM.). Still for that read-out and setting: under `CCCNC(=O)N[C@H]1CC[C@@H](Nc2nc3c(c(N(C)C)n2)CCCC3)CC1` [compound 1837] stands 3 (Class 3 The value of percent of control at 10^−7 M was more than 60% or the value of IC50 was more than 200 nM.).

The assay is the same for the next values; noted with them: class by percent of control at 10^−7 M or IC50.
Take `Cc1cnc(N[C@H]2CC[C@@H](NC(=O)c3ccc4c(c3)OC(F)(F)O4)CC2)nc1N(C)C` [compound 2926, N-(cis-4-{[4-(dimethylamino)-5-methylpyrimidin-2-yl]amino}cyclohexyl)-2,2-difluoro-1,3-benzodioxole-5-carboxamide]: the class was 1 (Class 1: The value of percent of control at 10^−7 M was less than 40% or the value of IC50 was less than 50 nM.).

On to `Cc1cnc(N[C@H]2CC[C@@H](NC(=O)C[S+]([O-])c3cccc(Br)c3)CC2)nc1N(C)C` (relative stereo) [compound 2882, 2-[(3-bromophenyl)sulfinyl]-N-(cis-4-{[4-(dimethylamino)-5-methylpyrimidin-2-yl]amino}cyclohexyl)acetamide], for which the class is reported as 1 (Class 1: The value of percent of control at 10^−7 M was less than 40% or the value of IC50 was less than 50 nM.).
